Key:
Echinochloa crus-galli [1] = test: Herbicidal effect test by soil treatment; format: in vivo; settings: 1.6 g/a, 3 weeks after treatment
Summary of the method: (§1)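 Pre-emergence soil application: wettable powder formulation, water-diluted to set dose, sprayed evenly over soil surface after sowing; seeds under ~1.5 cm sterilized diluvial soil. Effect rated at 3 wk by criteria scale.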

Avena fatua [2] = test: Herbicidal effect test by soil treatment; format: in vivo; settings: 1.6 g/a, 3 weeks after treatment
Summary of the method: as §1

Ambrosia elatior [3] = test: Herbicidal effect test by soil treatment; format: in vivo; settings: 1.6 g/a, 3 weeks after treatment
Summary of the method: as §1

[4] = tested on: Triticum aestivum (wheat); test: Herbicidal effect test by soil treatment; format: in vivo; settings: 1.6 g/a, 3 weeks after treatment
Summary of the method: as §1

Stellaria media [5] = test: Herbicidal effect test by soil treatment; format: in vivo; settings: 1.6 g/a, 3 weeks after treatment
Summary of the method: as §1

Black-grass [6] = test: Herbicidal effect test by soil treatment; format: in vivo; settings: 1.6 g/a, 3 weeks after treatment
Summary of the method: as §1

soybean (Glycine max) [7] = test: Herbicidal effect test by soil treatment; format: in vivo; settings: 1.6 g/a, 3 weeks after treatment
Summary of the method: as §1

Amaranthus retroflexus [8] = test: Herbicidal effect test by soil treatment; format: in vivo; settings: 1.6 g/a, 3 weeks after treatment
Summary of the method: as §1

Chenopodium album = test: Herbicidal effect test by soil treatment; format: in vivo; settings: 1.6 g/a, 3 weeks after treatment
Summary of the method: as §1

Abutilon avicennae [9] = test: Herbicidal effect test by soil treatment; format: in vivo; settings: 1.6 g/a, 3 weeks after treatment
Summary of the method: as §1

Setaria viridis [10] = test: Herbicidal effect test by soil treatment; format: in vivo; settings: 1.6 g/a, 3 weeks after treatment
Summary of the method: as §1

Polygonum blumei = test: Herbicidal effect test by soil treatment; format: in vivo; settings: 1.6 g/a, 3 weeks after treatment
Summary of the method: as §1

Beta vulgaris (beet) = test: Herbicidal effect test by soil treatment; format: in vivo; settings: 1.6 g/a, 3 weeks after treatment
Summary of the method: as §1

Digitaria adscendes = test: Herbicidal effect test by soil treatment; format: in vivo; settings: 1.6 g/a, 3 weeks after treatment
Summary of the method: as §1

corn (Zea mays) = test: Herbicidal effect test by soil treatment; format: in vivo; settings: 1.6 g/a, 3 weeks after treatment
Summary of the method: as §1

direct sown rice = test: Herbicidal effect test by foliage treatment; format: in vivo, Oryza sativa; settings: 1.6 g/a; foliage treatment after growth of 14 days; 3 weeks after treatment
Summary of the method: (§2)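 Post-emergence foliar spray: plants raised 14 d in greenhouse (25–30° C) from seed in sterilized diluvial soil, sprayed with diluted wettable powder formulation, injury rated visually at 3 wk.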

Echinochloa crus-galli [11] = test: Herbicidal effect test in submerged condition by treatment before weed-generation (2); format: in vivo; settings: 0.3 g/a; submerged paddy soil pot, water surface treated on day of sowing; 3 weeks after treatment
Protocol: (§3) Herbicidal Effect Test in Submerged Condition by Treatment Before Weed-Generation (2)
(§4) Paddy surface soil was placed in a plastic pot of 1/10000 are, water was poured therein and mixed. After seeds of Scirpus juncoides were sown, paddy surface soil was added by 2 cm, and submerged with water, and then seeds of Echinochloa crus-galli, Scirpus juncoides, Monochoria vaginalis, Rotala indica and Lindernia pyxidaria were sown together. In addition, rice seedlings at 2.5th leaf stage were transplanted, and fixed to the paddy surface in a state where the roots were exposed on the other side. On the day when the seeds were sown, the wettable powder of the present invention prepared according to Formulation Example 1 was diluted with water so as to give a predetermined formulation amount, and the surface of the water was treated with the diluted wettable powder. The plants were grown by putting the pot in a green house at 25 to 30° C. The herbicidal effect for each plant was investigated 3 weeks after treatment with the herbicide according to the criteria indicated in Test Example 1.

Scirpus juncoides = test: as above; format: in vivo; settings: 0.3 g/a; submerged paddy soil pot, water surface treated on day of sowing; 3 weeks after treatment
Protocol: as §3, §4

Monochoria vaginalis = test: as above; format: in vivo; settings: 0.3 g/a; submerged paddy soil pot, water surface treated on day of sowing; 3 weeks after treatment
Protocol: as §3, §4

[12] = tested on: transplanted rice (Oryza sativa); test: as above; format: in vivo; settings: 0.3 g/a; submerged paddy soil pot, rice seedlings at 2.5th leaf stage transplanted; 3 weeks after treatment
Protocol: as §3, §4

Rotala indica = test: as above; format: in vivo; settings: 0.3 g/a; submerged paddy soil pot, water surface treated on day of sowing; 3 weeks after treatment
Protocol: as §3, §4

Lindernia pyxidaria = test: as above; format: in vivo; settings: 0.3 g/a; submerged paddy soil pot, water surface treated on day of sowing; 3 weeks after treatment
Protocol: as §3, §4

Echinochloa crus-galli [13] = test: Herbicidal effect test by foliage treatment; format: in vivo; settings: 1.6 g/a; foliage treatment after growth of 14 days; 3 weeks after treatment
Summary of the method: as §2

Avena fatua [14] = test: Herbicidal effect test by foliage treatment; format: in vivo; settings: 1.6 g/a; foliage treatment after growth of 14 days; 3 weeks after treatment
Summary of the method: as §2

Ambrosia elatior [15] = test: Herbicidal effect test by foliage treatment; format: in vivo; settings: 1.6 g/a; foliage treatment after growth of 14 days; 3 weeks after treatment
Summary of the method: as §2

Stellaria media [16] = test: Herbicidal effect test by foliage treatment; format: in vivo; settings: 1.6 g/a; foliage treatment after growth of 14 days; 3 weeks after treatment
Summary of the method: as §2

Black-grass [17] = test: Herbicidal effect test by foliage treatment; format: in vivo; settings: 1.6 g/a; foliage treatment after growth of 14 days; 3 weeks after treatment
Summary of the method: as §2

soybean (Glycine max) [18] = test: Herbicidal effect test by foliage treatment; format: in vivo; settings: 1.6 g/a; foliage treatment after growth of 14 days; 3 weeks after treatment
Summary of the method: as §2

Amaranthus retroflexus [19] = test: Herbicidal effect test by foliage treatment; format: in vivo; settings: 1.6 g/a; foliage treatment after growth of 14 days; 3 weeks after treatment
Summary of the method: as §2

Abutilon avicennae [20] = test: Herbicidal effect test by foliage treatment; format: in vivo; settings: 1.6 g/a; foliage treatment after growth of 14 days; 3 weeks after treatment
Summary of the method: as §2

Setaria viridis [21] = test: Herbicidal effect test by foliage treatment; format: in vivo; settings: 1.6 g/a; foliage treatment after growth of 14 days; 3 weeks after treatment
Summary of the method: as §2

## COc1cc(OC)nc(NC(=O)NS(=O)(=O)c2c(C3=NOCC(C)O3)c(Cl)nn2C)n1 (stereo not shown) [Compound 1, N-((4,6-dimethoxypyrimidin-2-yl)aminocarbonyl)-3-chloro-1-methyl-4-(5-methyl-5H,6H-1,4,2-dioxadin-3-yl)pyrazole-5-sulfonamide]
Echinochloa crus-galli [1]
  herbicidal effect, A: Echinochloa crus-galli: 2 (Herbicidal rate 20% or more and less than 40%)
Avena fatua [2]
  herbicidal effect, F: Avena fatua: 0 (Herbicidal rate 5% or less (little effect))
Ambrosia elatior [3]
  herbicidal effect, I: Ambrosia elatior: 5 (Herbicidal rate 90% or more (almost complete death))
[4]
  herbicidal effect, e: Triticum aestivum (wheat): 5 (Herbicidal rate 90% or more (almost complete death))
Stellaria media [5]
  herbicidal effect, M: Stellaria media: 5 (Herbicidal rate 90% or more (almost complete death))
Black-grass [6]
  herbicidal effect, G: Black-grass: 4 (Herbicidal rate 70% or more and less than 90%)
Soybean (Glycine max) [7]
  herbicidal effect, c: soybean (Glycine max): 5 (Herbicidal rate 90% or more (almost complete death))
Amaranthus retroflexus [8]
  herbicidal effect, J: Amaranthus retroflexus: 5 (Herbicidal rate 90% or more (almost complete death))
Chenopodium album
  herbicidal effect, K: Chenopodium album: 5 (Herbicidal rate 90% or more (almost complete death))
Abutilon avicennae [9]
  herbicidal effect, H: Abutilon avicennae: 4 (Herbicidal rate 70% or more and less than 90%)
Setaria viridis [10]
  herbicidal effect, E: Setaria viridis: 1 (Herbicidal rate 5% or more and less than 20%)
Polygonum blumei
  herbicidal effect, L: Polygonum blumei: 5 (Herbicidal rate 90% or more (almost complete death))
Beta vulgaris (beet)
  herbicidal effect, f: Beta vulgaris (beet): 5 (Herbicidal rate 90% or more (almost complete death))
Digitaria adscendes
  herbicidal effect, D: Digitaria adscendes: 4 (Herbicidal rate 70% or more and less than 90%)
Corn (Zea mays)
  herbicidal effect, b: corn (Zea mays): 5 (Herbicidal rate 90% or more (almost complete death))
Direct sown rice
  herbicidal effect, d: direct sown rice: 0 (Herbicidal rate 5% or less (little effect))
Echinochloa crus-galli [11]
  herbicidal effect, A: Echinochloa crus-galli: 5 (Herbicidal rate 90% or more (almost complete death))
Scirpus juncoides
  herbicidal effect, B: Scirpus juncoides: 5 (Herbicidal rate 90% or more (almost complete death))
Monochoria vaginalis
  herbicidal effect, C: Monochoria vaginalis: 5 (Herbicidal rate 90% or more (almost complete death))
[12]
  herbicidal effect, a: transplanted rice (Oryza sativa): 0 (Herbicidal rate 5% or less (little effect))
Rotala indica
  herbicidal effect, N: Rotala indica: 5 (Herbicidal rate 90% or more (almost complete death))
Lindernia pyxidaria
  herbicidal effect, O: Lindernia pyxidaria: 5 (Herbicidal rate 90% or more (almost complete death))
Echinochloa crus-galli [13]
  herbicidal effect, A: Echinochloa crus-galli: 5 (Herbicidal rate 90% or more (almost complete death))
Avena fatua [14]
  herbicidal effect, F: Avena fatua: 1 (Herbicidal rate 5% or more and less than 20%)
Ambrosia elatior [15]
  herbicidal effect, I: Ambrosia elatior: 5 (Herbicidal rate 90% or more (almost complete death))
Stellaria media [16]
  herbicidal effect, M: Stellaria media: 5 (Herbicidal rate 90% or more (almost complete death))
Black-grass [17]
  herbicidal effect, G: Black-grass: 4 (Herbicidal rate 70% or more and less than 90%)
Soybean (Glycine max) [18]
  herbicidal effect, c: soybean (Glycine max): 5 (Herbicidal rate 90% or more (almost complete death))
Amaranthus retroflexus [19]
  herbicidal effect, J: Amaranthus retroflexus: 5 (Herbicidal rate 90% or more (almost complete death))
Abutilon avicennae [20]
  herbicidal effect, H: Abutilon avicennae: 5 (Herbicidal rate 90% or more (almost complete death))
Setaria viridis [21]
  herbicidal effect, E: Setaria viridis: 3 (Herbicidal rate 40% or more and less than 70%)

— patent US7709636B2, “Pyrazole sulfonylurea compound and herbicide” (Nissan Chemical Industries, Ltd., priority 2004, dated 2010)
